Results: ChEMBL document CHEMBL2448688, “Selection and optimization of hits from a high-throughput phenotypic screen against Trypanosoma cruzi. Exported from HEOS 25-Oct-2013. See also related datasets CHEMBL3137440 and CHEMBL3137386”
≈ marks a conversion by molar mass, not a printed value. Where “and” joins values, the source holds several entries; their conditions need not be identical. Equal values may be shown once.

How the values were obtained:
[1] = tested on: Trypanosoma cruzi; assay: (§1) DNDI: Chagas in Vitro; type: functional, organism-based, Tulahuen C4 (LacZ)
[2] = DNDI: Cytotoxicity in vitro, against rat skeletal myoblast (L-6) cells; conditions: L-6 cells (skeletal myoblasts), IC50
[3] = tested on: Trypanosoma cruzi; assay: as §1; type: functional, Tulahuen C4 (LacZ)
[4] = in vitro; conditions: human, microsomes
[5] = tested on: Trypanosoma brucei rhodesiense; assay: DNDI: HAT in Vitro; type: functional, organism-based, ATCC 30027; conditions: Trypanosoma brucei, ATCC 30027
[6] = DNDI: Solubility in 0.01M HCl at pH 2 determined by nephelometry; conditions: 0.01M HCl, pH 2, Kinetic
[7] = DNDI: Solubility in phosphate buffer at pH 6.5 determined by nephelometry; conditions: phosphate buffer, pH 6.5, Kinetic
[8] = in vitro; conditions: human, microsomes, t (1 / 2)
[9] = molecular target: Cytochrome P450 3A4 (Homo sapiens, UniProt P08684); assay: DNDI: Human CYP3A4 inhibition determined using 6b-hydroxylation of testosterone
[10] = in vitro; conditions: human, microsomes, EH
[11] = DNDI: Lipophilicity (gLogD) at pH 3; conditions: buffer, pH 3, logD
[12] = DNDI: Lipophilicity (gLogD) at pH 7.4; conditions: buffer, pH 7.4, logD
[13] = Trypanosoma cruzi, Tulahuen C4 (LacZ)

Chain of Cytochrome P450 3A4 (P08684 whole entry): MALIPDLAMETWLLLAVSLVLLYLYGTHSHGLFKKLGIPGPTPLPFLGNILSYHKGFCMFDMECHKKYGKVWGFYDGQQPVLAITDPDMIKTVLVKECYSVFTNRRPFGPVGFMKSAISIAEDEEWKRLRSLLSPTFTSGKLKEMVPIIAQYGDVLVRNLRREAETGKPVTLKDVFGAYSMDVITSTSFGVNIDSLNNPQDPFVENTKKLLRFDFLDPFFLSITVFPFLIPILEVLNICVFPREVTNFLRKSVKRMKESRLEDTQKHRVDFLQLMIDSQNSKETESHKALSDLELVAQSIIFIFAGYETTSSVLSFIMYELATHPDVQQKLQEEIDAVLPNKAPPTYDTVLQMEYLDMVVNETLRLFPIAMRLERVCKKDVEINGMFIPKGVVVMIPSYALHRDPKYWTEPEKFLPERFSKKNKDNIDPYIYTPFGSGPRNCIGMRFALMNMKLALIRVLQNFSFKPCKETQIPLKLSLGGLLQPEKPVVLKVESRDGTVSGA

Row | SMILES | IC50 [1, 13] | IC50 [2] | IC90 [3, 13] | microsomal CLint [4] | IC50 [5] | solubility kinetic [6] | solubility kinetic [7] | half-life [8] | IC50 [9] | hepatic extraction ratio [10] | chromatographic logD [11] | chromatographic logD [12] | IC50 [1] | IC90 [3]
1 | O=C(NCCc1c[nH]cn1)c1ccc(-c2ccccc2)cc1 | 306 nM | > 100000 nM |  |  |  |  |  |  |  |  |  |  |  | 
2 | CO/N=C(\C)c1ccc(-n2ccnc2)c(NC(=O)c2ccc(-c3ccccn3)cc2)c1 | > 1000 nM | > 100000 nM | > 1000 nM |  |  |  |  |  |  |  |  |  |  | 
3 | CS(=O)(=O)c1ccc(-n2ccnc2)c(NC(=O)c2cnc(-c3ccccc3)s2)c1 | 59.7 nM | > 100000 nM | > 100 nM |  |  |  |  |  |  |  |  |  |  | 
4 | O=C(NCCc1cnc[nH]1)c1ccc2cc(Br)ccc2c1 | 186 nM | 59700 nM | > 1000 nM | 16.5 µL/min/mg | > 10000 nM | 64.3 µg/mL (≈ 187 µM) | 48.2 µg/mL (≈ 140 µM) | 105 min | 3280 nM |  |  |  |  | 
5 | O=C(NCCc1cnc[nH]1)c1cnc(-c2ccccc2)cn1 |  |  |  | < 7 µL/min/mg | > 10000 nM | > 100 µg/mL |  | > 250 min | 16000 nM | < 0.23 | 1.3 | 2.1 |  | 
6 | CCN(Cc1cccnc1)c1cccc(-c2nc3ccccc3s2)c1 |  | 41900 nM |  | 159 µL/min/mg | > 10000 nM | > 100 µg/mL | < 1.6 µg/mL | 11 min | 1000 nM | 0.86 | 4.1 | 4.9 |  | 
7 | O=C(C1CC1)N(Cc1cccnc1)c1cccc(-c2nc3ccccc3s2)c1 | 29 nM | 60600 nM | > 100 nM | 380 µL/min/mg | > 10000 nM | > 100 µg/mL |  | 5 min |  |  | 3.4 | 4 |  | 
8 | CN(C)S(=O)(=O)c1ccc(-n2ccnc2)c(NC(=O)c2cnc(-c3ccccc3)s2)c1 | 13 nM | > 100000 nM | 87 nM | 79 µL/min/mg | > 10000 nM | > 100 µg/mL |  | 22 min | 10000 nM | 0.75 | 2.4 | 3 |  | 
9 | CCS(=O)(=O)N(Cc1cccnc1)c1cccc(-c2nc3ccccc3s2)c1 | 23 nM | > 100000 nM | 58.5 nM | 346 µL/min/mg | > 10000 nM | > 100 µg/mL |  | 5 min | < 250 nM | 0.93 | 3.2 | 3.6 |  | 
10 | CO/N=C(\C)c1ccc(-n2ccnc2)c(NC(=O)c2ccc(-c3cccs3)nc2)c1 | 2.7 nM | > 100000 nM | 9.5 nM | 102 µL/min/mg |  | > 100 µg/mL |  | 17 min | 1400 nM | 0.8 | 2.4 | 3.2 |  | 
11 | O=C(C1CC1)N(Cc1cccnc1)c1cncc(-c2nc3ccccc3s2)c1 | 12.9 nM |  | 34 nM |  |  |  |  |  |  |  |  |  |  | 
12 | CCS(=O)(=O)N(Cc1cccnc1)c1cncc(-c2nc3ccccc3s2)c1 | 13.5 nM | > 100000 nM | 355 nM | 559 µL/min/mg |  | > 82.1 µg/mL | 13 µg/mL (≈ 31.8 µM) | 3.1 min | 1040 nM | 0.965 | 1.89 | 3.19 |  | 
13 | O=C(Nc1ccccc1-n1ccnc1)c1cnc(-c2ccccc2)s1 | 4.9 nM |  | 10 nM |  |  |  |  |  |  |  |  |  | 3.2 nM and 3.8 nM | 
14 | CO/N=C(\C)c1ccc(-n2ccnc2)c(NC(=O)c2cc(-c3ccccc3)cs2)c1 |  | > 100000 nM |  |  |  |  |  |  |  |  |  |  |  | 
15 | CCN(Cc1cccnc1)c1cc(F)cc(-c2nc3ccccc3s2)c1 | 47 nM | 57700 nM | 98 nM | 179 µL/min/mg |  | 57.2 µg/mL (≈ 157 µM) | < 0.36 µg/mL | 9.7 min | 775 nM | 0.898 | 3.75 | > 4.5 |  | 
16 | O=C(C1CC1)N(Cc1cccnc1)c1cc(F)cc(-c2nc3ccccc3s2)c1 | 20 nM | 76900 nM | 62.5 nM | 1320 µL/min/mg |  | 66.9 µg/mL (≈ 166 µM) | 6.65 µg/mL (≈ 16.5 µM) | 1.3 min |  |  | 3.04 | 4.49 |  | 
17 | CO/N=C(\C)c1ccc(-n2ccnc2)c(NC(=O)c2sc(-c3ccccc3)nc2C)c1 | 67.5 nM | > 100000 nM | 204 nM | 18 µL/min/mg |  | > 100 µg/mL |  | 97 min |  |  | 2.3 | 3.5 |  | 
18 | CS(=O)(=O)N(Cc1cccnc1)c1ccc(-c2nc3ccccc3s2)cc1 | 40.5 nM | > 100000 nM | 91 nM |  |  |  |  |  |  |  |  |  |  | 
19 | CCN(Cc1cccnc1)c1ccc(-c2nc3ccccc3s2)cc1 | 351 nM | 54500 nM | 632 nM |  |  |  |  |  |  |  |  |  |  | 
20 | CCN(Cc1cccnc1)c1ccc(-c2ccc(F)cc2)cc1F | 17 nM | 56300 nM | 82.5 nM | 80.5 µL/min/mg |  | 59.5 µg/mL (≈ 183 µM) | < 0.32 µg/mL | 21.5 min | 1000 nM | 0.799 | 3.49 | > 4.5 |  | 
21 | CC(=O)N(Cc1cccnc1)c1ccc(-c2ccc(F)cc2)cc1F | 53.5 nM |  | 184 nM |  |  |  |  |  |  |  |  |  |  | 
22 | Cc1ccc(-n2ccnc2)c(NC(=O)c2cnc(-c3ccccc3)s2)c1 | 1.98 nM | 86600 nM | 15 nM | 109 µL/min/mg |  | > 100 µg/mL |  | 16 min |  |  | 1.8 | 3 |  | 
23 | CS(=O)(=O)N(Cc1cccnc1)c1ccc(-c2ccc(F)cc2)cc1F | 2 nM |  |  | 218 µL/min/mg |  | > 74.9 µg/mL | 8.62 µg/mL (≈ 23 µM) | 7.9 min | 612 nM | 0.916 | 1.89 | 3.18 | 1 nM | 14.6 nM and 6 nM
24 | CCN(Cc1cnc[nH]1)c1cc(F)cc(-c2nc3ccccc3s2)c1 | 51 nM |  |  | 138 µL/min/mg |  | > 70.5 µg/mL | 3.1 µg/mL (≈ 8.8 µM) | 12.4 min | 576 nM | 0.874 | 1.98 | 4.67 | 48 nM | 51 nM and 110 nM
25 | NCC(=O)N(Cc1cccnc1)c1ccc(-c2nc3ccccc3s2)cc1 | 17 nM |  |  |  |  |  |  |  |  |  |  |  |  | 64 nM and 625 nM
26 | CC(=O)N(Cc1cnc[nH]1)c1cc(F)cc(-c2nc3ccccc3s2)c1 | 486 nM | > 100000 nM | 941 nM |  |  |  |  |  |  |  |  |  | 534 nM | > 1000 nM
27 | CC(C)Cc1ccc(-n2ccnc2)c(NC(=O)c2cnc(-c3ccccc3)s2)c1 | < 0.14 nM |  |  | 157 µL/min/mg |  | > 100 µg/mL | < 1.6 µg/mL | 11 min |  |  | 2.8 | 3.9 | 0.22 nM and 0.2 nM and 0.19 nM | 
28 | CC(=O)N(Cc1c[nH]cn1)c1ccc(-c2ccc(F)cc2)cc1F |  | 69900 nM |  |  |  |  |  |  |  |  |  |  |  | 
